In publication PMC10584170, “Machine learning-based phenotypic imaging to characterise the targetable biology of Plasmodium falciparum male gametocytes for the development of transmission-blocking antimalarials” (PLOS Pathogens, 2023):

How the values were obtained:
[1] = system: P. falciparum male gametocytes; test: P. falciparum Dual Gamete Formation Assay (PfDGFA), male readout (exflagellation); type: cell-based, Plasmodium falciparum NF54; conditions: for Average inhibition male (%): average of replicates; for % inhibition male (individual replicates) R1: replicate R1; for % inhibition male (individual replicates) R3: replicate R3; for % inhibition male (individual replicates) R4: replicate R4; for Activity: hit = >50% inhibition in male or female readout in at least 3 replicates, 0 = no class assigned
How it was run: (§1)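 NF54 mature gametocytes (d14), cpd 24 h 37°C hypoxic gas; trigger: xanthurenic acid ookinete medium + Cy3 anti-Pfs25, 4°C 4 min → 28°C 4 min. Male: exflagellation centres, brightfield x6. Female: Pfs25+ gametes, fluorescence, +24 h 28°C dark.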

[2] = system: P. falciparum female gametocytes; test: P. falciparum Dual Gamete Formation Assay (PfDGFA), female readout (Pfs25-positive female gametes); type: cell-based, Plasmodium falciparum NF54; conditions: for Average inhibition female (%): average of replicates; for % inhibition female (individual replicates) R1: replicate R1; for % inhibition female (individual replicates) R3: replicate R3; for % inhibition female (individual replicates) R4: replicate R4
How it was run: as §1

[3] = 2µM, 24h preincubation with gametocytes prior to induction of gametogenesis
[4] = 2µM, 24h preincubation, number of replicates with >50% inhibition in the male readout
[5] = 2µM, 24h preincubation, number of replicates with >50% inhibition in the female readout
[6] = PfDGFA at 2µM, 24h preincubation with gametocytes
[7] = 2µM, 24h preincubation, hits selected on >50% inhibition in the male readout across replicates
[8] = PfDGFA at 2µM, 24h preincubation
[9] = 2µM, 24h preincubation, hits selected on >50% inhibition in the female readout across replicates
[10] = PfDGFA at 2µM, 24h preincubation with gametocytes prior to induction of gametogenesis

Structure (SMILES)	Average inhibition male (%) [1, 3]	% inhibition male (individual replicates) R1 [1, 3]	% inhibition male (individual replicates) R3 [1, 3]	% inhibition male (individual replicates) R4 [1, 3]	HitlevelM [1, 4]	Average inhibition female (%) [2, 3]	% inhibition female (individual replicates) R1 [2, 3]	% inhibition female (individual replicates) R3 [2, 3]	% inhibition female (individual replicates) R4 [2, 3]	HitlevelF [2, 5]	other results
CCc1c(CCNCCCCCCNCCc2ccc(OC)c(OC)c2CC)ccc(OC)c1OC.Cl [TCMDC-132047]	61.2%	56.6%	45.7%	80.2%	3	17.9%	11.5%	7.6%	17.6%	0	–
CCc1c(CCNCCCCCCNC(C)Cc2ccc3c(c2CC)OCO3)ccc(OC)c1OC.Cl (centres unmarked) [TCMDC-132052]	–	–	–	–	–	–	–	–	–	–	Average inhibition male (%) [1, 6]: 79.1%; % inhibition male (individual replicates) R1 [1, 6]: 84.5%; % inhibition male (individual replicates) R3 [1, 6]: 62.9%; % inhibition male (individual replicates) R4 [1, 6]: 90.9%; HitlevelM ([1]; number of replicates with >50% inhibition in the male readout, 2µM): 4; Average inhibition female (%) [2, 6]: 26.4%; % inhibition female (individual replicates) R1 [2, 6]: 34.8%; % inhibition female (individual replicates) R3 [2, 6]: 2.4%; % inhibition female (individual replicates) R4 [2, 6]: 23.2%; HitlevelF ([2]; number of replicates with >50% inhibition in the female readout, 2µM): 0
CCc1c(CCNCCCCCCNCCc2ccc([N+](=O)[O-])cc2)ccc(OC)c1OC.Cl [TCMDC-132066]	38.6%	42.7%	1.6%	56.2%	2	24.7%	23.1%	5.5%	16.3%	1	–
CCc1c(CCNCCCCCCNCc2ccc3c(c2CC)OCO3)ccc(OC)c1OC.Cl [TCMDC-132068]	39.4%	42.2%	19.5%	56.9%	–	13.2%	18.0%	-2.7%	25.3%	–	HitlevelM [1, 7]: 1; Activity [1, 8]: 0; HitlevelF [2, 9]: 0
COc1cc2c(c(Cl)c1OC)CCN(C(=O)C(F)(F)F)CC2c1ccccc1 (centres unmarked) [TCMDC-132071]	–	–	–	–	–	–	–	–	–	–	% inhibition male (individual replicates) R1 [1, 10]: 5.3%; % inhibition male (individual replicates) R3 [1, 10]: 19.8%; % inhibition male (individual replicates) R4 [1, 10]: -8.3%; Average inhibition male (%) [1, 8]: 3.7%; % inhibition female (individual replicates) R1 [2, 10]: 4.5%; % inhibition female (individual replicates) R3 [2, 10]: -4.3%; % inhibition female (individual replicates) R4 [2, 10]: 10.0%; Average inhibition female (%) [2, 8]: 2.1%
CCc1c(CCNCCCCCCNCCc2ccc3c(c2C)OCO3)ccc2c1OCO2.Cl [TCMDC-132093]	59.8%	52.8%	37.9%	88.2%	3	43.6%	28.1%	50.1%	47.8%	1	–
COc1ccc(-c2nc3c(N)nc(N)nc3nc2C(C)C)cc1 [TCMDC-132109]	-8.8%	-5.9%	-23.4%	-14.5%	–	17.4%	48.8%	-20.3%	37.3%	–	HitlevelM [1, 7]: 0; Activity [1, 8]: 0; HitlevelF [2, 9]: 0
Cl.N#Cc1c(F)cc(N2CCC(NCC[C@H](N)Cc3ccc(F)c(F)c3)CC2)cc1F [TCMDC-132121]	31.7%	33.4%	31.1%	56.8%	1	20.0%	13.8%	22.9%	12.3%	0	–
O=C(O)C(F)(F)F.O=S(=O)(NCCN1CCCC1)c1ccc(-c2cccc(CNC3Cc4ccccc4C3)c2)s1 [TCMDC-132217]	13.9%	10.5%	7.6%	38.2%	0	35.5%	25.9%	15.7%	46.4%	1	–
O=C(O)C(F)(F)F.O=S(=O)(NCCN1CCCC1)c1ccc(-c2cccc(CNC3Cc4ccccc4C3)c2)cc1F [TCMDC-132221]	11.1%	3.1%	–	19.5%	0	29.0%	30.1%	27.5%	20.7%	0	–
COc1ccc(CNCc2ccc(F)cc2)cc1-c1cccc(S(=O)(=O)NCCN2CCCC2)c1.O=C(O)C(F)(F)F [TCMDC-132223]	-1.9%	-0.6%	2.2%	-9.8%	0	23.7%	23.5%	4.6%	54.2%	1	–
CN1CCC(NCc2ccc(-c3ccc(S(=O)(=O)NCc4ccccc4)cc3)cc2)CC1.O=C(O)C(F)(F)F [TCMDC-132227]	43.4%	32.1%	–	43.3%	1	19.1%	9.9%	31.6%	17.4%	0	–
O=C(O)C(F)(F)F.O=S(=O)(NCCN1CCCC1)c1ccc(-c2ccc(CNC3Cc4ccccc4C3)cc2)cc1 [TCMDC-132229]	10.7%	12.4%	8.7%	9.5%	0	26.6%	21.5%	7.4%	45.3%	0	–
